Laboratory results published in PubChem BioAssay AID1902 (Broad Institute, 2009).
Activity calls are given as the source filed them.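 How the source made its calls: active means EC50 no more than a set limit of log units above the highest dose; inactive means the rest.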

molecular target: S. pyogenes SKKanGAS, kanamycin survival, BacTiterGlo, 6 h; test: S. pyogenes SKKanGAS kanamycin growth inhibitors – SKKanGAS strain, luminescence, dose confirmation, streptokinase promoter inhibitor project, dose response (AID 1902);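 further: lower survival reflects blocked streptokinase promoter driving kanamycin resistance gene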

Point of comparison: `O=c1cc(-c2ccc([N+](=O)[O-])cc2)nc2cc(-c3ccc(F)cc3)[nH]n12`, EC50 3.48 µM. Against it:
- Cc1ccc(Cn2c(Cc3ccccc3)nc3ccccc32)cc1 — 4.1-fold higher, 14.2 µM
- O=C(Nc1nnc(SCc2ccc(F)cc2)s1)c1ccccn1 — 9.1-fold lower, 0.382 µM
- COc1ccc(OC)c(C2C=C(C34CC5CC(CC(C5)C3)C4)NC(=S)N2)c1 (stereo unspecified) — within 1.5-fold, 2.96 µM
- COc1cc(C(=O)NS(=O)(=O)c2ccccc2C)ccc1Cc1cn(C)c2ccc(NC(=O)OC3CCCC3)cc12 — 1.7-fold lower, 2.05 µM
- Cc1cc(=O)[nH]c(SCC(=O)Nc2ccc(Br)cc2)c1C#N — 2.8-fold higher, 9.7 µM
- O=C(c1cc(-c2ccccc2)n[nH]1)N1CCc2c([nH]c3ccccc23)C1c1ccccn1 (stereo unspecified) — 1.5-fold higher, 5.23 µM
- CCOC(=O)C1=NN(C(=O)c2ccc(C)cc2)C(O)(c2ccc(Cl)cc2)C1 (stereo unspecified) — within 1.5-fold, 3.06 µM
- CC(C)c1ccc2c(c1)c(SC(C)(C)C)c(CC(C)(C)C(=O)O)n2Cc1ccc(Cl)cc1 — 4-fold lower, 0.875 µM
- CN(C)S(=O)(=O)c1ccc(C(=O)Nc2nnc(-c3ccc4c(c3)CCCC4)o2)cc1 — 24-fold lower, 0.144 µM
- C=C1CCC2C(C)(C)[C@@H](O)CC[C@@]2(C)[C@@H]1COc1ccc2ccc(=O)oc2c1 (stereo partly specified) — 3.3-fold higher, 11.6 µM
- O=c1c2ccccc2oc2cc(-c3ccc4[nH]ccc4c3)ccc12 — within 1.5-fold, 4.85 µM
- Cc1cc(N/N=C\c2ccc(Br)cc2)nc(-n2nc(C)cc2C)n1 — 8.4-fold lower, 0.414 µM
- CCOC(=O)/C(=N\Nc1ccc(OC)cc1)c1csc(Nc2ccccc2)n1 — within 1.5-fold, 2.45 µM
- Nc1nc(Nc2cccc(Cl)c2)nc(NCc2ccco2)c1[N+](=O)[O-] — 2.3-fold higher, 7.92 µM
- CCOC(=O)C1=NN(C(=O)c2ccc(OC)cc2)C(O)(c2ccc(Cl)cc2)C1 (stereo unspecified) — 1.7-fold higher, 6 µM
- O=C(O)CN1C(=O)/C(=C\c2cc(Br)ccc2OCc2ccc(Cl)cc2)SC1=S — 2.2-fold lower, 1.56 µM
- CCCCCCCn1c(NC(=O)CC)nc2ccccc21 — 10-fold lower, 0.342 µM
- CCC(NC(=O)Nc1nnc(C(F)(F)F)s1)(C(F)(F)F)C(F)(F)F — 2.5-fold lower, 1.42 µM
- CN(C)c1ccc(/C=C/c2ccc3ccccc3[n+]2C)cc1 — 2.1-fold higher, 7.2 µM
- CN1CCN(C2Cc3ccc(Cl)cc3Sc3ccc(F)cc32)CC1 (stereo unspecified) — 1.9-fold higher, 6.47 µM
- NC1CCN(c2c(F)cc3c(=O)c(C(=O)O)cn(C4CC4)c3c2Cl)C1 (stereo unspecified) — 54-fold lower, 0.064 µM
- Cc1ccc(S(=O)(=O)CNC(=S)c2ccc3ccccc3c2)cc1 — within 1.5-fold, 4.18 µM
- O=c1c2ccccc2c(C=Nc2ccc(O)cc2)c(O)n1Cc1ccccc1 — 1.8-fold higher, 6.21 µM
- CCCCC(CC)C(=O)Oc1ccc(O)c(C(C)(C)C)c1 (stereo unspecified) — within 1.5-fold, 2.89 µM
- Cc1ccc2nc(N3C(=O)C(O)=C(C(=O)c4cc5ccccc5o4)C3c3cccs3)sc2c1 (stereo unspecified) — 2.9-fold lower, 1.22 µM
- Cc1cc(C)c2c(C(C)(C)C)nn(-c3ccccc3)c2n1 — within 1.5-fold, 2.97 µM
- CCOC(=O)c1cnc(-n2nc(C)cc2C)nc1NNc1cc(C)nc(-c2ccccc2)n1 — 15-fold lower, 0.237 µM
- O=c1cc(-c2ccccc2Cl)oc2c(NS(=O)(=O)c3cc(Cl)cc(Cl)c3O)ccc(O)c12 — 6.3-fold lower, 0.552 µM
- Nc1n[nH]c(C2CC2)c1N=Nc1ccc(Cl)c(Cl)c1 — 1.7-fold lower, 2.05 µM
- NC(N)=N/N=C/c1ccc(OCc2ccccc2)c(OCc2ccccc2)c1 — 2-fold higher, 6.82 µM
- O=C(NNC(=O)c1ccccc1OCc1ccccc1Cl)c1csc(N2CCOCC2)n1 — within 1.5-fold, 5.04 µM
- C=C(C)COc1ccc(-c2[nH]ncc2Oc2ccc(OC)cc2)c(O)c1 — within 1.5-fold, 4.05 µM
- O=C(NC(NC(=S)Nc1ccc(Cl)c(Cl)c1)C(Cl)(Cl)Cl)c1ccco1 (stereo unspecified) — within 1.5-fold, 3.41 µM
- CC(C)Cn1c2c(c(O)c(C(=O)Nc3ncccc3O)c1=O)CCCC2 — within 1.5-fold, 2.35 µM
- O=C(O)c1ccc(N=Nc2c(O)[nH]c3ccc(Br)cc23)cc1 — 1.7-fold lower, 2.03 µM
- COC(=O)c1sc(-c2ccc(C(C)(C)C)cc2)cc1NC(=O)CSCC(=O)O — within 1.5-fold, 3.91 µM
- COc1cccc(N2C(N)=NC(N)=NC2(C)C)c1 — 11-fold lower, 0.318 µM
- O=C(NNC(=S)Nc1ccc(Cl)c(Cl)c1)c1ccccn1 — 2.1-fold lower, 1.66 µM
- S=c1[nH]cnc2scc(-c3ccc(Cl)cc3)c12 — 2.8-fold higher, 9.77 µM
- CCCOc1ccc(C(=O)NC(=S)NNC(=O)c2c(-c3ccccc3)noc2C)cc1 — 13-fold lower, 0.274 µM
- CN1CC(c2ccc(Cl)c(Cl)c2)[C@@]2(COc3ccccc3C2=O)[C@@]12C(=O)Nc1ccccc12 (stereo partly specified) — 2.4-fold lower, 1.43 µM
- COc1ccccc1-n1c(SCC(=O)Nc2ccc(Br)cc2)nc(O)cc1=O — 3-fold higher, 10.3 µM
- CCNc1nc(Oc2c(Cl)cccc2Cl)cc(C(F)(F)F)n1 — 1.9-fold higher, 6.58 µM
- COc1ccc(-c2cc(-c3ccc(C)cc3)n[nH]2)c(O)c1 — within 1.5-fold, 2.76 µM
- Cc1cc(/C=N/n2cnnc2)c(C)n1-c1ccc(OCc2ccc(Cl)cc2Cl)cc1 — 1.7-fold lower, 2.1 µM
- CC1(C)Cc2nc3sc4c(OCc5ccccc5)ncnc4c3cc2CO1 — within 1.5-fold, 4.19 µM
- CC1=NN(C(N)=S)C(=O)C1N=Nc1c(C)cc(C)cc1C (stereo unspecified) — 1.7-fold higher, 5.77 µM
- O=C(N/N=C/c1ccc([N+](=O)[O-])o1)c1cc(-c2cccc(Br)c2)nc2ccccc12 — 8.2-fold lower, 0.422 µM
- Cc1cccc2sc(NNC(=O)c3cc(-c4cccs4)nc4ccccc34)nc12 — 3.3-fold lower, 1.05 µM
- C=CCn1c(=O)c(C(=O)NCc2ccccc2)c(O)c2ccccc21 — within 1.5-fold, 3.32 µM
- COc1ccc2[nH]c3c(=O)n(/N=C/c4ccc(OC)c(CN5CCCC5)c4)c(C)nc3c2c1 — 2-fold higher, 7.06 µM
- CCCCCCCCCCC(=O)NNC(=O)c1c(O)c2ccccc2n(CC)c1=O — 19-fold lower, 0.185 µM
- C=C(CC1([C@@H](NP(=O)(c2ccccc2)c2ccccc2)[C@H]2C[C@@H]2CCCC)CC1)c1ccccc1 — within 1.5-fold, 3.64 µM
- CN(C)c1nc(N/N=C/c2ccccc2O)nc(Nc2ccc(F)cc2)n1 — within 1.5-fold, 3.79 µM
- Oc1[nH]c2ccccc2c1N=NC(=S)NCCc1ccccc1 — within 1.5-fold, 4.39 µM
- O=C(/C=C/c1ccccc1)NC(NC(=S)Nc1cc(Cl)ccc1Cl)C(Cl)(Cl)Cl (stereo unspecified) — 6.3-fold lower, 0.55 µM
- COc1cc(OC)cc(C(=O)Nc2nc(-c3ccccc3)c(-c3ccccc3)o2)c1 — 5.5-fold lower, 0.629 µM
- COC(=O)c1ccc(/C=C/c2ccc3cccc(OC(C)=O)c3n2)cc1 — 2.9-fold lower, 1.18 µM
- COc1ccc(NC2=NCC(Cc3ccc(Br)cc3)S2)cc1 (stereo unspecified) — 3.4-fold higher, 11.9 µM
- c1ccc(CSC2=NNC(c3ccccn3)S2)cc1 (stereo unspecified) — 3.1-fold lower, 1.13 µM
- S=C(NCc1ccco1)N1CCN(c2nc(-c3ccc(Cl)cc3)cs2)CC1 — 2.9-fold higher, 9.92 µM
- CCOC(=O)c1c(N)sc(C(O)(C(F)(F)F)C(F)(F)F)c1-c1ccc(Cl)cc1 — within 1.5-fold, 3.17 µM
- Cc1nnc(SCC2=C(C(=O)O)N3C(=O)C(NC(=O)c4cc(F)c(F)cc4Cl)C3SC2)s1 (stereo unspecified) — 6.5-fold lower, 0.535 µM
- Nc1nc(NCc2ccco2)nc(N2CCCCCC2)c1[N+](=O)[O-] — within 1.5-fold, 4.09 µM
- COc1cccc(CNCC(O)(c2ccc(Cl)cc2)c2ccc(Cl)cc2)c1 — within 1.5-fold, 3.7 µM
- Cc1nn(-c2ccccc2)c(C)c1/C=N/Nc1nc2ccccc2[nH]1 — 2.8-fold higher, 9.71 µM
- O=S(=O)(c1ccccc1)N1CCN=C1SCc1c(F)cccc1Cl — 2.3-fold higher, 8.15 µM
- CCC(=O)Nc1ccc(Nc2nc(C)c([N+](=O)[O-])c(Nc3ccc(NC(=O)CC)cc3)n2)cc1 — 2.2-fold lower, 1.56 µM
- CCOC(=O)c1cnc(-n2nc(C)cc2C)nc1NC(C)c1ccccc1 (stereo unspecified) — within 1.5-fold, 2.74 µM
- Oc1c(CN2CCN(c3ccccn3)CC2)cc(Cl)c2cccnc12 — 1.6-fold higher, 5.58 µM
- CC(=O)OCC1=C(C(=O)O)N2C(=O)C(NC(=O)c3ccc(COc4cccc(Cl)c4Cl)o3)C2SC1 (stereo unspecified) — within 1.5-fold, 2.79 µM
- Cc1cc(=O)oc2cc(OCC(=O)N3CCN(C(=O)C4COc5ccccc5O4)CC3)ccc12 (stereo unspecified) — within 1.5-fold, 3.16 µM
- O=C(COc1ccc(Cl)cc1Cl)NNC(=S)NC(=O)c1ccco1 — 34-fold lower, 0.102 µM
- CCCC(=O)NC(c1ccc(Cl)cc1)c1ccc2cccnc2c1O (stereo unspecified) — 2.1-fold higher, 7.2 µM
- Cc1cc(C(C#N)c2ccc(Cl)cc2)c(Cl)cc1NC(=O)c1cc(I)cc(I)c1O (stereo unspecified) — 42-fold lower, 0.082 µM
- O=C1C=C(N2CCCCC2)c2ccccc2C1=O — within 1.5-fold, 3.67 µM
- CC(C)Cn1c(=O)c(C(=O)Nc2ccncc2)c(O)c2ccccc21 — within 1.5-fold, 4.17 µM
- O=C(NNC(=S)NC(=O)c1ccccc1)c1cccc([N+](=O)[O-])c1 — 1.7-fold higher, 5.82 µM
- NC(=S)N/N=C/c1ccc(C23CC4CC(CC(C4)C2)C3)cc1 — within 1.5-fold, 3.91 µM
- O=C(N/N=C/c1cc([N+](=O)[O-])ccc1O)c1cccc(NC(=O)c2cccc(Cl)c2)c1 — within 1.5-fold, 4.69 µM
- O=C(Oc1ccc(NC2=C(Cl)C(=O)c3ccccc3C2=O)cc1)c1ccc([N+](=O)[O-])cc1 — 2.1-fold higher, 7.48 µM
- Cn1c(O)c(N=NC(=O)c2cc(-c3cccs3)nc3ccccc23)c2ccccc21 — within 1.5-fold, 2.57 µM
- O=[N+]([O-])c1cc(S(=O)(=O)C(F)(F)F)ccc1Sc1nc2ccccc2[nH]1 — within 1.5-fold, 4.1 µM
- S=C(NCCSCc1ccc(Cl)c(Cl)c1)Nc1ccccc1 — within 1.5-fold, 3.71 µM
- Cc1ccc(C)c(/C=C/C(=O)c2ccccc(=O)c2O)c1 — 1.8-fold lower, 1.9 µM
- O=S(=O)(Nc1cccc(-c2ccc(N3CCOCC3)nn2)c1)c1ccc(Cl)c(Cl)c1 — 2.8-fold higher, 9.66 µM
- COc1ccc(/C=C/C(=O)NC(=S)NNC(=O)c2ccco2)cc1OC — within 1.5-fold, 4.08 µM
- COc1cccc(-c2coc3c(C)c4oc(=O)c(CCC(=O)O)c(C)c4cc23)c1 — within 1.5-fold, 3.73 µM
- CC(C)(C)C1CCC2(CC1)C(C#N)=C(SCC(=O)Nc1ccccc1)NC(=O)C2C#N (stereo unspecified) — within 1.5-fold, 4.25 µM
- CCCOc1ccc(C(=O)NC(=S)N2CCN(c3cc4c(cc3F)c(=O)c(C(=O)O)cn4CC)CC2)cc1 — within 1.5-fold, 2.34 µM
- COc1cc(OC)cc(C(=O)NC(=S)N2CCN(c3ccc(C(F)(F)F)cc3[N+](=O)[O-])CC2)c1 — 2.7-fold lower, 1.28 µM
- Nc1nc(N)c2cc(Sc3ccc4ccccc4c3)ccc2n1 — 30-fold lower, 0.115 µM
- CN1C(=O)/C(=C/c2cccn2-c2ccc3ccccc3c2)C(=O)NC1=S — 1.6-fold higher, 5.74 µM
- COc1ccc(Cl)cc1C(=O)NNC(=S)NC(=O)c1ccc(F)c(F)c1 — 25-fold lower, 0.139 µM

In the case of `O=C(CSC(=S)N1CCOCC1)c1cc(Br)cc(Br)c1O`, the EC50 is reported as > 15 µM (inactive).
For `Cc1ccccc1N1CCN(C(=O)CCN2C(=O)c3ccccc3C2=O)CC1`, the EC50 was > 15 µM (inactive).
For `COc1ccccc1OCC(=O)Nc1c2c(nn1-c1ccc(F)cc1)CS(=O)(=O)C2`, the EC50 was > 15 µM (inactive).
For `CC(C)(C)NS(=O)(=O)c1ccc(NS(=O)(=O)Cc2ccccc2)cc1`, the EC50 was > 15 µM (inactive).
`COc1cccc(C(=O)NC(=S)N2CCN(c3ccc(C(F)(F)F)cc3[N+](=O)[O-])CC2)c1` was tested, and the EC50 was > 15 µM (inactive).
In the case of `CCC(C(=O)NCCCN1CCCC1=O)n1c2ccccc2c2nc(=O)cc(C)n21` (stereo unspecified), the EC50 is reported as > 15 µM (inactive).
In the case of `CCC[N+]1(CC#CC2(O)CCCCC2)CCOCC1`, the EC50 is reported as > 15 µM (inactive).
With `N#C/C(=N\Nc1ccc(Cl)cc1)C(N)=S` the EC50 was > 15 µM (inactive).
With `O=C(NCc1nnc(SCC(=O)N2CCOCC2)o1)c1c(F)cccc1F` the EC50 was > 15 µM (inactive).
For `Fc1cccc2sc(Nc3nc4cc5c(cc4s3)OCO5)nc12`, the EC50 was > 15 µM (inactive).
`CC(=O)N1c2ccc(S(=O)(=O)N3CCC(C(=O)Nc4cc(C)ccn4)CC3)cc2CC1C` (stereo unspecified) was tested, and the EC50 was > 15 µM (inactive).
